Results from ChEMBL document CHEMBL4385605, “Synthesis and Structure-Affinity Relationships of Spirocyclic Benzopyrans with Exocyclic Amino Moiety” (J Med Chem, 2019).
The source made the active and inactive calls. The calls are words filed in the database; no cut-off is given here.

What was measured:
[1] = target: Sigma intracellular receptor 2 (Homo sapiens, UniProt Q5BJF2); assay: Displacement of [3H]-di-o-tolylguanidine from sigma2 receptor in human RT4 cell membranes incubated for 120 mins in the presence of sigma1 receptor ligand (+)-pentazocine by scintillation counting method
Sigma intracellular receptor 2 (Homo sapiens, UniProt Q5BJF2), sequence (Q5BJF2 whole entry): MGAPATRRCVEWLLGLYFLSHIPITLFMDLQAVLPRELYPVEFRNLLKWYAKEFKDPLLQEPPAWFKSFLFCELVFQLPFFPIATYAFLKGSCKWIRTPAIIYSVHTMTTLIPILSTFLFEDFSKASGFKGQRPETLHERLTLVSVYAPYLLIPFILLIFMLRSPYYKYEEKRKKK

Cytochrome P450 1A2 = target: T1, Cytochrome P450 1A2 (Homo sapiens, UniProt P05177); assay: Inhibition of recombinant human CYP1A2 at 1 uM by fluorescence assay; assay type: ADME; conditions: recombinant enzyme
T1 sequence (P05177 whole entry): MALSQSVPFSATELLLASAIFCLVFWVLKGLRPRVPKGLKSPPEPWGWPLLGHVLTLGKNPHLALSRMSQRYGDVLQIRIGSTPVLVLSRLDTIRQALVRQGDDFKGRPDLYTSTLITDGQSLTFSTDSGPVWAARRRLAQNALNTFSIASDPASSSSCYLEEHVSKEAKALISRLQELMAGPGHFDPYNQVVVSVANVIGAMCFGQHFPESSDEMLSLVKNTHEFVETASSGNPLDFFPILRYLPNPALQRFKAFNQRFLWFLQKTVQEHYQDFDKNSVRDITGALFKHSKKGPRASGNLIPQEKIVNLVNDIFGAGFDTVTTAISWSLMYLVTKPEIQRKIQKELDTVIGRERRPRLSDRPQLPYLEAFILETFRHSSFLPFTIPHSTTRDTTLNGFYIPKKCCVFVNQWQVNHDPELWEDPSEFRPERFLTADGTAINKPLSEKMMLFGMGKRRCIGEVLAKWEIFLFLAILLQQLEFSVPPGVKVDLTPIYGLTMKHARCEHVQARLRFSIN

[2] = target: Sodium-dependent dopamine transporter (Homo sapiens) (UniProt Q01959); assay: Binding affinity to dopamine transporter (unknown origin) at 1 uM
Sodium-dependent dopamine transporter (Homo sapiens), sequence (Q01959 whole entry): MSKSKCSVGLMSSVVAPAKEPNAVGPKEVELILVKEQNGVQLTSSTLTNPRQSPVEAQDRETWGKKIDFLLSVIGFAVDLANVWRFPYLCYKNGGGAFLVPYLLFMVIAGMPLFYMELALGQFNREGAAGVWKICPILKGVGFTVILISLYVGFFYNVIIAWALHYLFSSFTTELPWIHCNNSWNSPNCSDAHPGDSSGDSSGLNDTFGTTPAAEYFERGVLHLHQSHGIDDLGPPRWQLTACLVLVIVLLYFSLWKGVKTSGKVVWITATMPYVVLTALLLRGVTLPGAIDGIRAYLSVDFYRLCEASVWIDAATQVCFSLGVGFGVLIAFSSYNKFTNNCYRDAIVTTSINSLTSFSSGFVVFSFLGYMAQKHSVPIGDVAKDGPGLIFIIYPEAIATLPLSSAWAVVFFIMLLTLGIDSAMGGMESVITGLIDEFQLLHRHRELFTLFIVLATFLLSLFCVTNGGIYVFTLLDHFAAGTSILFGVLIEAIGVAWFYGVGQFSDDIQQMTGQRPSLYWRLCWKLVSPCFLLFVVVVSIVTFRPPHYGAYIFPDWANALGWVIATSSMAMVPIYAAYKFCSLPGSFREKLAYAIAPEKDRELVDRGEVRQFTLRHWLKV

[3] = target: Sodium-dependent noradrenaline transporter (Homo sapiens) (UniProt P23975); assay: Binding affinity to noradrenaline transporter (unknown origin) at 1 uM
Sodium-dependent noradrenaline transporter (Homo sapiens), sequence (P23975 whole entry): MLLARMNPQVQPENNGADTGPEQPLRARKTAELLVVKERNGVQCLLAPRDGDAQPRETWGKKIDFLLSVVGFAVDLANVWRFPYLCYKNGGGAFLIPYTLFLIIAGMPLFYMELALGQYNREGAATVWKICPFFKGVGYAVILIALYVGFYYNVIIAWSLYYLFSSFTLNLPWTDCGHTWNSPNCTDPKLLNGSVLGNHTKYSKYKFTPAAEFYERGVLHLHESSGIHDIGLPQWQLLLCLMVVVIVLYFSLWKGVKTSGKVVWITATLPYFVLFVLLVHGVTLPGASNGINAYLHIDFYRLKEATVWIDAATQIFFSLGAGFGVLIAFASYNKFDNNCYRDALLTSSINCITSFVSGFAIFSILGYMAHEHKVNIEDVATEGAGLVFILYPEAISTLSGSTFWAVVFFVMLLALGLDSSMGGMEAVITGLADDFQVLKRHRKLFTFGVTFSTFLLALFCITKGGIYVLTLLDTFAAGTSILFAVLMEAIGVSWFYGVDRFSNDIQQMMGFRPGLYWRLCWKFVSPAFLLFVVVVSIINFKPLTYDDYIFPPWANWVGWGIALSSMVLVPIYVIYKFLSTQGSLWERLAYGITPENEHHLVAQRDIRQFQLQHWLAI

Sus scrofa = species: Sus scrofa; assay: Displacement of [3H]-(+)-MK-801 from PCP binding site of NMDA receptor in pig brain cortex membranes up to 1 uM after 120 mins by scintillation counting analysis; assay type: cell membranes
[4] = target: Sigma non-opioid intracellular receptor 1 (Rattus norvegicus) (UniProt Q9R0C9); assay: Agonist activity at sigma 1 receptor in rat PC12 cells assessed as effect on KCl-induced intracellular calcium flux by fura-2-AM dye based fluorescence assay; assay type: cell-based
Sigma non-opioid intracellular receptor 1 (Rattus norvegicus), sequence (Q9R0C9 whole entry): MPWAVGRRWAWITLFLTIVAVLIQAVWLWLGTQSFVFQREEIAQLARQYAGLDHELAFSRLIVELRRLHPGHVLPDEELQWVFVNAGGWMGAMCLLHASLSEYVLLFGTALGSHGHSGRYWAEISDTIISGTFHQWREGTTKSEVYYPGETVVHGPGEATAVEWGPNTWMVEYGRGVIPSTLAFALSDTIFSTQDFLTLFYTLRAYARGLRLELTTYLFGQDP

[5] = target: T2, Alpha-2A adrenergic receptor (Homo sapiens) (UniProt P08913); assay: Binding affinity to alpha 2a adrenergic receptor (unknown origin) at 1 uM relative to control
T2 sequence (whole entry): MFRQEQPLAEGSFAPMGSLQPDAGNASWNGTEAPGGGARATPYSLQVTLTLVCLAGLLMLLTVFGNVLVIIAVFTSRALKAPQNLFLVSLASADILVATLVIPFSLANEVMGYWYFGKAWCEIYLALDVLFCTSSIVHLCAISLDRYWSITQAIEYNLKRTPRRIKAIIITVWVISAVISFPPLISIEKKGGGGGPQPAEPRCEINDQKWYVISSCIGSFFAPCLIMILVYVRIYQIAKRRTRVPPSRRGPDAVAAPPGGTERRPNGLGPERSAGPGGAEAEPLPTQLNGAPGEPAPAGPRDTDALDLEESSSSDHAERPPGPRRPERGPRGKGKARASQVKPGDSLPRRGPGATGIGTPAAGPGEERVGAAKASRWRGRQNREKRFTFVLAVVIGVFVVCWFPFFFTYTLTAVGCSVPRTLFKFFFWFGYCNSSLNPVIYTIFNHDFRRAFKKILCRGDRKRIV

[6] = Selectivity ratio of Ki for displacement of [3H]DTG from sigma2 receptor in rat liver membranes to Ki for displacement of (+)-[3H]pentazocine from sigma 1 receptor in guinea pig brain cortex membranes; assay type: cell membranes
[7] = target: 5-hydroxytryptamine receptor 2B (Homo sapiens) (UniProt P41595); assay: Binding affinity to 5-HT2BR (unknown origin) at 1 uM relative to control
5-hydroxytryptamine receptor 2B (Homo sapiens), sequence (P41595 whole entry): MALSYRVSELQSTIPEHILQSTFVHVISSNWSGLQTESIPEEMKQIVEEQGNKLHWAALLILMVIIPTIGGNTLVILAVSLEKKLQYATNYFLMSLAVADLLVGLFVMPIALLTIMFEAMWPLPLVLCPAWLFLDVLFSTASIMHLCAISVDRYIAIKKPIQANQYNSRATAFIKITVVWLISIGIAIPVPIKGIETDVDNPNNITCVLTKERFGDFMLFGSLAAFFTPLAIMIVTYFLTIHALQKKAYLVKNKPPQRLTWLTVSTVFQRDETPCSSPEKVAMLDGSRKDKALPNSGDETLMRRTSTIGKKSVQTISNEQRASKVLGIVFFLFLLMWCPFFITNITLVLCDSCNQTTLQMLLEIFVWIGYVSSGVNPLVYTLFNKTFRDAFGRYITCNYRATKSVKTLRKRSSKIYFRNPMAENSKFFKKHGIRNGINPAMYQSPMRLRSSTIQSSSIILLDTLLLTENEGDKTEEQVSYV

[8] = target: Kappa-type opioid receptor (Cavia porcellus) (UniProt P41144); assay: Displacement of [3H]U69,593 from kappa opioid receptor in guinea pig brain membrane at 1 uM after 120 mins by scintillation counting analysis relative to control; assay type: cell membranes
Kappa-type opioid receptor (Cavia porcellus), sequence (P41144 whole entry): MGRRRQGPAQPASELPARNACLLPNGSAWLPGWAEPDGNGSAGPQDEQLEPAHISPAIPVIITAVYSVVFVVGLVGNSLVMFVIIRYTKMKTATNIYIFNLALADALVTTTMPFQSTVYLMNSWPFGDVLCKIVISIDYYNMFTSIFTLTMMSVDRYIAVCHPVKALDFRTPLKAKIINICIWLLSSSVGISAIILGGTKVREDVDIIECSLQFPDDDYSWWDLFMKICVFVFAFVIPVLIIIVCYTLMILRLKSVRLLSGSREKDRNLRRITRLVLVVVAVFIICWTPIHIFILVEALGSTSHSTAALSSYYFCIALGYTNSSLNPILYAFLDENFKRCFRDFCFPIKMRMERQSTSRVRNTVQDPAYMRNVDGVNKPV

[9] = target: T3, 5-hydroxytryptamine receptor 1A (Homo sapiens) (UniProt P08908); assay: Binding affinity to 5-HT1AR (unknown origin) at 1 uM relative to control
T3 sequence (whole entry): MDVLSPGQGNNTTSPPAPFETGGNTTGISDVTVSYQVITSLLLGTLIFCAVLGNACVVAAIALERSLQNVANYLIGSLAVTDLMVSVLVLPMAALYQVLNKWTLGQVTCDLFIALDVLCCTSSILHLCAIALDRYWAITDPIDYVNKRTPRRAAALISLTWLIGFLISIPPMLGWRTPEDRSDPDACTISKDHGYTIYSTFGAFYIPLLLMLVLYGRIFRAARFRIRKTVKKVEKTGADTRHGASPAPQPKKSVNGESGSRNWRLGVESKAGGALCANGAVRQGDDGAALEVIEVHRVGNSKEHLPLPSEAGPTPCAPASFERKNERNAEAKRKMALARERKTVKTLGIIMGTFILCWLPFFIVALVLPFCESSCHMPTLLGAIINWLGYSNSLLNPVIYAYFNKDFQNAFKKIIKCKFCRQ

Cytochrome P450 2C19 = Cytochrome P450 2C19 (Homo sapiens, UniProt P33261); assay: Inhibition of recombinant human CYP2C19 at 1 uM by fluorescence assay; assay type: ADME; conditions: recombinant enzyme
Cytochrome P450 2C19, sequence (P33261 whole entry): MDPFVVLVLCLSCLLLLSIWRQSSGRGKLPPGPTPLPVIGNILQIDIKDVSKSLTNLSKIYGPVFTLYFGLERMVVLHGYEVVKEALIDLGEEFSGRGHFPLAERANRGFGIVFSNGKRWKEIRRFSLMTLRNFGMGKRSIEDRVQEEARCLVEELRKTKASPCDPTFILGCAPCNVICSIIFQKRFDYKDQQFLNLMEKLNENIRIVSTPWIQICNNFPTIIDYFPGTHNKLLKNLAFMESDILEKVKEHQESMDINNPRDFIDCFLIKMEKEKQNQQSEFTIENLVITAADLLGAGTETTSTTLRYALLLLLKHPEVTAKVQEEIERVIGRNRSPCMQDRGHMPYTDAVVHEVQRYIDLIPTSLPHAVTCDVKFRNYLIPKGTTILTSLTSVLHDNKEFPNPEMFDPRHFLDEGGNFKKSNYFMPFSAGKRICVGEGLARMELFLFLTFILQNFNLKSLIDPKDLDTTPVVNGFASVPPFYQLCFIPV

Cytochrome P450 3A4 = Cytochrome P450 3A4 (Homo sapiens, UniProt P08684); assay: Inhibition of recombinant human CYP3A4 at 1 uM by fluorescence assay; assay type: ADME; conditions: recombinant enzyme
Cytochrome P450 3A4, sequence (P08684 whole entry): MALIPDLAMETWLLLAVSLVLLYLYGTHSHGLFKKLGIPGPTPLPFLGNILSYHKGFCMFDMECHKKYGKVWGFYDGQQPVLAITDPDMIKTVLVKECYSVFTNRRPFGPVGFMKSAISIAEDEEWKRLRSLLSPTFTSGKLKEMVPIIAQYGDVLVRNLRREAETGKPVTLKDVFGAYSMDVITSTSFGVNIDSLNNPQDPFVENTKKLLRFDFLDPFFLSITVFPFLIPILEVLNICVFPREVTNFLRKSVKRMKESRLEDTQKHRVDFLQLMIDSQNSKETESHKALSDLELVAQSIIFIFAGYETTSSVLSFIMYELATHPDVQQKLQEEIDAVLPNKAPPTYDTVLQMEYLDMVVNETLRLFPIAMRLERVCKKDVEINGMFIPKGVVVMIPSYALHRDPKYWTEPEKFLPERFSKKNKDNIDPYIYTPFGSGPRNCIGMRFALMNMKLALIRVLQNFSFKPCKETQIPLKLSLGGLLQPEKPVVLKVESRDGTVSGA

Mu-type opioid receptor = Mu-type opioid receptor (Cavia porcellus, UniProt P97266); assay: Displacement of [3H]DAMGO from mu opioid receptor in guinea pig brain membranes after 120 mins by scintillation counting analysis; assay type: cell membranes
Mu-type opioid receptor, sequence (P97266 whole entry): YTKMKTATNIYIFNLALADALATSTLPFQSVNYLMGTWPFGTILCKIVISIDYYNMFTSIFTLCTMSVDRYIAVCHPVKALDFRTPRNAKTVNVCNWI

Cytochrome P450 2C9 = Cytochrome P450 2C9 (Homo sapiens, UniProt P11712); assay: Inhibition of recombinant human CYP2C9 at 1 uM by fluorescence assay; assay type: ADME; conditions: recombinant enzyme
Cytochrome P450 2C9, sequence (P11712 whole entry): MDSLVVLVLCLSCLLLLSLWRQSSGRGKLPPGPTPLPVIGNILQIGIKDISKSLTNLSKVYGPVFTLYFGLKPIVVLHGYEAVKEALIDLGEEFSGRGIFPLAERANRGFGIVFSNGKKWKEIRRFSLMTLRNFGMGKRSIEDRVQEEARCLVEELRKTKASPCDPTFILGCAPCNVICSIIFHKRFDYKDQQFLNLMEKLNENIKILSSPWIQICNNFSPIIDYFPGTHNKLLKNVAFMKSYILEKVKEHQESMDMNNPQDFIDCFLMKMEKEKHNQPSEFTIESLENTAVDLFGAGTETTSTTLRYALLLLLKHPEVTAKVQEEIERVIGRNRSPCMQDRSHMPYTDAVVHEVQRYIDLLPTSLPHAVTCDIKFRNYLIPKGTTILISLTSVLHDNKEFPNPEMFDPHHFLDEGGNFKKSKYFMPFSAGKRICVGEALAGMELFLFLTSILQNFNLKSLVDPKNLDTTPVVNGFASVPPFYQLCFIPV

[10] = Metabolic stability in human liver microsomes assessed as parent compound remaining at 1 uM in the presence of NADPH regenerating system after 60 mins by UPLC/MS analysis; assay type: ADME, Microsome; conditions: read-out: Stability
[11] = target: Sodium-dependent serotonin transporter (Homo sapiens) (UniProt P31645); assay: Binding affinity to serotonin transporter (unknown origin) at 1 uM
Sodium-dependent serotonin transporter (Homo sapiens), sequence (P31645 whole entry, looked up): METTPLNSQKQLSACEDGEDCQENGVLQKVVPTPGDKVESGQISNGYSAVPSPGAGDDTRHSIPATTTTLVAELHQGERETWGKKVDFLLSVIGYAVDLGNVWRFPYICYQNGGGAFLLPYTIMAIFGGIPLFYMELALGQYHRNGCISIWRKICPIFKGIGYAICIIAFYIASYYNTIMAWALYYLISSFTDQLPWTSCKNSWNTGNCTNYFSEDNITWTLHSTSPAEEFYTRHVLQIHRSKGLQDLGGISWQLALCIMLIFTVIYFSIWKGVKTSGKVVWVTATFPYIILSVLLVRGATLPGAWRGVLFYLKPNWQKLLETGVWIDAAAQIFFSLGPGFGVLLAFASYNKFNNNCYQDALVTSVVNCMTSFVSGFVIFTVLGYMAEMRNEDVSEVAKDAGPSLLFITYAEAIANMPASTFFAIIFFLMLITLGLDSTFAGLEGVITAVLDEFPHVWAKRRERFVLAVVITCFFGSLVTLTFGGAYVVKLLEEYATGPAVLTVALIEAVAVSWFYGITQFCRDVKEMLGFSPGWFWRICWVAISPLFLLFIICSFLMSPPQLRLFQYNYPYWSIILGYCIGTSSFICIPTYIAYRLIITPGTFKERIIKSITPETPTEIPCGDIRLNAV

[12] = target: T4, Sigma intracellular receptor 2 (Rattus norvegicus, UniProt Q5U3Y7); assay: Displacement of [3H]-di-o-tolylguanidine from sigma2 receptor in rat liver membranes incubated for 120 mins in the presence of sigma1 receptor ligand (+)-pentazocine by scintillation counting method; assay type: cell membranes
T4 sequence (Q5U3Y7 whole entry): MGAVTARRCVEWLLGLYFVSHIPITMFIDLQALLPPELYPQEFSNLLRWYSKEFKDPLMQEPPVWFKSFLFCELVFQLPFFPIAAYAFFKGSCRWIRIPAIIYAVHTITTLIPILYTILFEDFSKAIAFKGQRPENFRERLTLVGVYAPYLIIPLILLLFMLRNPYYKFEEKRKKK

HepG2 = assay: Cytotoxicity against human HepG2 cells at 1 to 100 uM incubated for 20 hrs under serum free condition by neutral red uptake assay; assay type: cell-based; conditions: hepg2, 20 h

COC1Cc2ccccc2[C@]2(CC[C@H](N(C)CC3CCCCC3)CC2)O1 (some centres undefined)
Ki [1]: 0.013 µM | inhibition (INH) (Cytochrome P450 1A2): Not Active | Activity [2]: inactive | Activity [3]: inactive | Activity (Sus scrofa): inactive | Activity [4]: inactive | Activity [5]: 93% | Ratio Ki [6]: 5 to 10 | Activity [7]: 62% | inhibition [8]: 0% | Activity [9]: 60% | inhibition (INH) (Cytochrome P450 2C19): Not Active | inhibition (INH) (Cytochrome P450 3A4): Not Active | Ki (Mu-type opioid receptor): 0.391 µM | inhibition (INH) (Cytochrome P450 2C9): Not Active | remaining at 1 h, 1 µM [10]: > 50% | Activity [11]: inactive | Ki [12]: 0.012 µM | Activity (HepG2): Non-Toxic
